Data taken from patent US20110184034A1, “Severe sepsis preventive therapeutic agent” (priority 2002, published 2011).

What was measured:
[1] = system: LPS-inoculated female BALB/c mice; assay: Effect by administration after LPS inoculation in endotoxin shock model (1), survival; assay type: in vivo, mouse; conditions: LPS 10 mg/kg i.p.; test substance 30 mg/kg i.p. at 1 hr after LPS inoculation; observed one week
Procedure: To investigate the treatment effect during the process toward an advanced degree after the onset of sepsis, the effect of a test substance (Reference Example B1) by administration after LPS inoculation in an endotoxin shock model was investigated. […] The test substance was suspended in 0.5% aqueous methyl cellulose solution, and intraperitoneally inoculated (30 mg/kg) at 1 hr before, immediately after, 30 min after and 1 hr after LPS inoculation. The solvent was given to the control group at 1 hr before LPS inoculation.

[2] = system: IL-6 production, mouse macrophage cell line RAW264.7; assay: IL-6 production by β-amyloid peptide (1-40) in RAW264.7; assay type: cell-based; conditions: β-amyloid peptide (1-40) 10 μM + interferon-γ 10 U/mL
Procedure: (§1) On the previous day of the experiment, the cells were suspended in RPMI-1640 medium supplemented with 10% inactivated fetal calf serum to 5×10^5 cells/mL and inoculated to a 96-well microplate at 0.2 mL/well. After incubation at 37° C. under 5% CO2/95% air overnight, the medium was changed to an RPMI-1640 medium supplemented with 1% inactivated fetal calf serum, a test substance and β-amyloid peptide (1-40) (final concentration 10 μM) and interferon-γ (final concentration 10 U/mL) were added. After further incubation overnight, the concentrations of tumor necrosis factor-α (TNF-α) and IL-6 in culture supernatants were measured using an enzyme immunoassay kit manufactured by Amersham. The test substance was dissolved at 10 mM in N,N-dimethylformamide and diluted with an RPMI-1640 medium supplemented with 1%, inactivated fetal calf serum to the concentration of 0.1 mM, then diluted with a medium to a 10-fold concentration of the final concentration and 1/10 was added.

[3] = system: TNF-α production, mouse macrophage cell line RAW264.7; assay: TNF-α production by β-amyloid peptide (1-40) in RAW264.7; assay type: cell-based; conditions: β-amyloid peptide (1-40) 10 μM + interferon-γ 10 U/mL
Procedure: as §1

[4] = system: male DBA/1 mice, type II collagen induced arthritis; assay: Collagen induced arthritis model; assay type: in vivo, mouse; conditions: for Arthritis incidence (%) / Arthritis index: 30 mg/kg orally once a day from collagen immunization
Procedure: Bovine-derived type II collagen was dissolved in 0.050 acetic acid solution, and an equivalent amount of Freund's complete adjuvant was mixed therewith to give an emulsion. The collagen emulsion was administered intracutaneously into the tail head of male DBA/1 mice (6W) (n=10-12) at 100 μg/0.1 mL to induce arthritis. The levels of flare and edema of four limbs were visually observed during the progress thereof. The drug (Reference Example B3) (30 mg/kg) was suspended in 0.5% MC, and orally administered once a day from collagen immunization for 8 weeks (except Sundays). The onset of arthritis was evaluated every week, and the rate of onset was expressed by (number of limbs having arthritis/number of limbs of mice in one group×100). As indices of arthritis, for each limb, no change was 0, swelling of one finger or plural fingers was 1, flare and swelling seen in the entirety was 2, strong swelling seen in the entirety was 3, crampus tonicus of joint was 4, and the total of four limbs was 16, and arthritis was expressed in (total of all scores of onset mice/number of limbs of mice in one group), wherein 4 was the highest value for one limb.

[5] = system: male Sprague-Dawley rats, balloon-injured carotid artery; assay: Rat balloon injury model, vascular thickening (DNA content of carotid artery); assay type: in vivo; conditions: 30 and 100 mg/kg/d i.p. once a day, 2 weeks
Procedure: Using male Sprague-Dawley rats, the neck was incised under sodium pentobarbital (45 mg/kg ip) anesthesia to expose left carotid artery. A Forgaty catheter (2F, manufactured by Baxtar) was inserted from the […] to a bifurcation area of internal and external carotid arteries of left carotid artery, a balloon was blown and abraded to the aortic arch bifurcation. This operation was repeated three times to injure the common carotid artery. After the injury, the catheter was extracted, the incision was sutured, and the rats were individually bred in ordinary breeding cages. After 2 weeks from the injury, the rats were exsanguinated under anesthesia, and the left (injured) side and the right (non-injured) side of carotid arteries were removed by 5 mm on the heart side, at 5 mm from the internal and external carotid artery bifurcation area, and the DNA content was measured. The drug (Reference Example B3) was suspended in 0.5% methyl cellulose, and intraperitoneally administered once a day from the day of balloon injury operation to carotid artery enucleation. When balloon injury operation was performed, the drug was administered 30 min before anesthesia and the balloon injury was produced.

[6] = system: female CBA/J mice, DSS induced colitis; assay: Dextran sulfate induced colitis model; assay type: in vivo, mouse; conditions: for BW (%) / Hb / Ht (%) / RBC / WBC: means ± SE of six mice; for GBS (%) (grossly bloody stool): six mice
Procedure: A 5% dextran sulfate (DSS) solution was placed in a water feeder to allow free drinking by female CBA/J mice (8 w) for 5 days, the solution was changed to 1% DSS solution on day 6 to allow free drinking for 7 days. The drug (Reference Example B3) (10-30 mg/kg) was suspended in 0.5% methyl cellulose (MC), and orally administered from day 6 under 1% DSS solution drinking once a day for 7 days. After 12 days of drinking DSS, the body weight was measured and stool was observed (grossly bloody stool: GBS). Blood was drawn and white blood count (WBC), red blood count (RBC), hemoglobin concentration (Hb) and hematocrit value (Ht) were measured by using an automatic cell counter (Sysmex).

[7] = system: E. coli O111 inoculated galactosamine-loaded female BALB/c mice; assay: Galactosamine loaded mouse Escherichia coli inoculated lethal model, survival; assay type: in vivo; conditions: E. coli O111 5.9×10^5 CFU i.p. with galactosamine 1 g/kg; test substance 30 mg/kg orally at 1 hr after bacterial inoculation; observed 6 days
Procedure: Since sepsis is a systemic inflammatory response caused by infection, the effect of a test substance (Reference Example B26) by administration after bacterial inoculation in infection model was studied. […] The test substance was suspended in 0.5% aqueous methyl cellulose solution, and orally administered (30 mg/kg) immediately, 30 min and 1, 2 and 4 hr after the bacterial inoculation. The solvent was orally administered to the control group immediately after the bacterial inoculation.
In other words, the test substance can be expected to show effect of improving the state of severe sepsis complicated with organ dysfunction.

[8] = system: TLR2 signal (PGN), mouse macrophage cell line RAW264.7; assay: NO production by TLR2 selective agonist peptide glycan (PGN) in RAW264.7; assay type: cell-based; conditions: RAW264.7, PGN 1 μg/mL + interferon-γ 0.1 ng/mL, nitrite ion
Procedure: (§2) Using mouse macrophage cell line RAW264.7, the suppressive effect of the test substance on cytokine production by a TLR selective agonist was investigated. On the previous day of the experiment, the cells were suspended in RPMI-1640 medium supplemented with 10% inactivated fetal calf serum to 5×10^5 cells/mL and inoculated to a 96-well microplate at 0.2 mL/well. After incubation at 37° C. under an atmosphere of 5% CO2/95% air overnight, the medium was changed to an RPMI-1640 medium supplemented with 1% inactivated fetal calf serum, and a test substance, various TLR agonists and interferon-γ (final concentration 0.1 ng/mL) were added. After further incubation overnight, the concentration of nitrite ion (stable metabolite of NO) in the culture supernatant was quantified by fluorescence method using 2,3-dimaminonaphthalene. As the TLR4 selective agonist, LPS was added, as the TLR2 selective agonist, peptide glycan (PGN) was added, and as the TLR9 selective agonist, CpG oligoDNA (CPG) was added, to the final concentrations of 5 ng/mL, 1 μg/mL and 75 nmol/L, respectively. In addition, the test substance was dissolved at 10 mM in N,N-dimethylformamide, diluted with an RPMI-1640 medium supplemented with 1% inactivated fetal calf serum to the concentration of 0.1 mM, then diluted with a medium to a 10-fold concentration of the final concentration and 1/10 was added.

[9] = system: TLR4 signal (LPS), mouse macrophage cell line RAW264.7; assay: NO production by TLR4 selective agonist LPS in RAW264.7; assay type: cell-based; conditions: RAW264.7, LPS 5 ng/mL + interferon-γ 0.1 ng/mL, nitrite ion
Procedure: as §2

[10] = system: TLR9 signal (CPG), mouse macrophage cell line RAW264.7; assay: NO production by TLR9 selective agonist CpG oligoDNA (CPG) in RAW264.7; assay type: cell-based; conditions: RAW264.7, CpG oligoDNA 75 nmol/L + interferon-γ 0.1 ng/mL, nitrite ion
Procedure: as §2

[11] = system: LPS-inoculated female BALB/c mice; assay: Effect by administration after LPS inoculation in endotoxin shock model (2), survival; assay type: in vivo, mouse; conditions: LPS 4 mg/kg i.p.; test substance 10 mg/kg i.v. (soybean oil emulsion) at 4 hr after LPS inoculation; observed 5 days
Procedure: To investigate the treatment effect during the process toward an advanced degree after the onset of sepsis, the effect of a test substance (Reference Example B66) by administration after LPS inoculation in an endotoxin shock model was investigated. […] The test substance was prepared into an emulsified liquid of a soybean oil, and intravenously administered (10 mg/kg) immediately after, 1, 2, 4 and 6 hr after LPS inoculation. An emulsified liquid without a drug was intravenously administered to the control group immediately after LPS inoculation.

[12] = 10 mg/kg orally once a day for 7 days
[13] = 30 mg/kg orally once a day for 7 days

SMILES: CCOC(=O)C1=CCCCC1S(=O)(=O)Nc1ccc(Cl)cc1F (stereo not drawn) [Reference Example B1, ethyl 6-[N-(4-chloro-2-fluorophenyl)-sulfamoyl]-1-cyclohexene-1-carboxylate]
- life-saving effect (survival) [1]: clear life-saving effect
- Suppressive rate (%) IL-6 ([2]; 1 μM): 80%
- Suppressive rate (%) IL-6 ([2]; 10 μM): 100%
- Suppressive rate (%) TNF-α ([3]; 1 μM): 77%
- Suppressive rate (%) TNF-α ([3]; 10 μM): 99%

SMILES: CCOC(=O)C1=CCCCC1S(=O)(=O)Nc1ccc(F)cc1F (stereo not drawn) [Reference Example B3, ethyl 6-[N-(2,4-difluorophenyl)sulfamoyl]-1-cyclohexene-1-carboxylate]
- incidence and index of arthritis ([4]; 30 mg/kg orally): decreased the incidence and index of arthritis
- Arthritis incidence (%) ([4]; 6W): 37.5%
- Arthritis index ([4]; 6W): 0.65
- Arthritis incidence (%) ([4]; 7W): 40.0%
- Arthritis index ([4]; 7W): 0.80
- Arthritis incidence (%) ([4]; 8W): 60.0%
- Arthritis index ([4]; 8W): 1.15
- vascular thickening due to balloon injury (DNA content) [5]: suppressed vascular thickening due to balloon injury in a dose-dependent manner
- BW (%) [6, 12]: 102.0 ± 7.1%
- Hb [6, 12]: 13.2 ± 0.8 g/dL
- Ht (%) [6, 12]: 35.4 ± 2.7%
- RBC [6, 12]: 607.5 ± 45.3 ×10^4/μL
- WBC [6, 12]: 41.0 ± 4.1^+ ×10^2/μL
- GBS (%) (grossly bloody stool) [6, 12]: 83%
- BW (%) [6, 13]: 102.8 ± 7.9%
- Hb [6, 13]: 12.9 ± 0.5 g/dL
- Ht (%) [6, 13]: 35.1 ± 2.7%
- RBC [6, 13]: 616.7 ± 51.1 ×10^4/μL
- WBC [6, 13]: 53.5 ± 7.8^+ ×10^2/μL
- GBS (%) (grossly bloody stool) [6, 13]: 67%
- changes in WBC, RBC, Hb and Ht induced by DSS ([6]; 10-30 mg/kg orally): remarkably suppressed changes in WBC, RBC, Hb and Ht induced by DSS
- Suppressive rate (%) IL-6 ([2]; 1 μM): 100%
- Suppressive rate (%) IL-6 ([2]; 10 μM): 100%
- Suppressive rate (%) TNF-α ([3]; 1 μM): 87%
- Suppressive rate (%) TNF-α ([3]; 10 μM): 97%

SMILES: CCOC(=O)C1=CCCCC1S(=O)(=O)Nc1ccc(F)cc1Cl (stereo not drawn) [Reference Example B26, ethyl 6-[N-(2-chloro-4-fluorophenyl)-sulfamoyl]-1-cyclohexene-1-carboxylate]
- Suppressive rate (%) IL-6 ([2]; 1 μM): 93%
- Suppressive rate (%) IL-6 ([2]; 10 μM): 96%
- Suppressive rate (%) TNF-α ([3]; 1 μM): 88%
- Suppressive rate (%) TNF-α ([3]; 10 μM): 100%
- life-saving effect (survival) [7]: clear life-saving effect

SMILES: CCOC(=O)C1=CCCC[C@H]1S(=O)(=O)Nc1ccc(F)cc1Cl [Reference Example B66, ethyl (6R)-6-[(2-chloro-4-fluoroanilino)sulfonyl]-1-cyclohexene-1-carboxylate]
- IC50 [8]: > 1000 nM
- IC50 [9]: 10 nM
- IC50 [10]: > 1000 nM
- life-saving effect (survival) [11]: clear life-saving effect

SMILES: CCOC(=O)C1=CCCCC1S(=O)(=O)Cc1ccc(F)cc1Cl (stereo not drawn) [Reference Example D4, ethyl 6-[(2-chloro-4-fluorobenzyl)sulfonyl]-1-cyclohexene-1-carboxylate]
- IC50 [8]: > 1000 nM
- IC50 [9]: 11 nM
- IC50 [10]: > 1000 nM

SMILES: CCOC(=O)C1=CCOCC1S(=O)(=O)Nc1ccc(F)cc1Cl (stereo not drawn) [Reference Example D7, ethyl 3-[(2-chloro-4-fluorophenyl)sulfamoyl]-3,6-dihydro-2H-pyran-4-carboxylate]
- IC50 [8]: 530 nM
- IC50 [9]: 18 nM
- IC50 [10]: > 1000 nM
